Measurements reported in paper PMC11096398, “Chemical and biophysical characterization of novel potassium channel blocker 3-fluoro-5-methylpyridin-4-amine” (Scientific Reports, 2024).
“And” between values parts separate entries of the source, which are not always exact repeats. Identical values can stand only once. Like-named read-outs stand apart in the source and are kept apart here.

Columns and labels:
CYP2E1 = CYP2E1 (Homo sapiens, UniProt P05181); assay: in vitro
Protocol: The relative metabolic stability towards CYP2E1 was assessed with the competitive CYP2E1 inhibition assay utilizing the life technologies™ vivid® CYP2E1 screening kit, as described in previous studies. In this assay, fluorescence emitted by the metabolic product of a specific CYP2E1 substrate included in the kit, was measured in the absence and presence of substrate competitors.
Afterwards, 50 µL master pre-mix 2× (40 nM) CYP2E1 BACULOSOMES® and 2× (0.6 units/mL) vivid® regeneration system in 1× reaction buffer) was added to each well. The plate was incubated for 10 min at room temperature to allow the compounds to interact with the CYP2E1 in the absence of enzyme turnover. Next, the reaction was initiated by adding 10 µL per well of 10× (100 μM) Vivid® substrate (2H-1-benzopyran-3-carbonitrile,7-(ethoxy-methoxy)-2-oxo-(9Cl)) and 10× (300 μM) Vivid® NADP^+ mixture. Immediately (in less than 2 min), the plate was transferred into the fluorescent plate reader and fluorescence was monitored over 60 min (reads in 1 min intervals) at 415 nm as excitation wavelength and 460 nm as emission wavelength. The obtained reads were plotted using GraphPad Prism 9.
A similar vivid® CYP2E1 assay was conducted as described above. […] The plate fluorescence was monitored over 60 min (reads in 1 min intervals) at 415 nm as excitation wavelength and 460 nm as emission wavelength. The reads at 60 min (recalculated by the linear trend line equation) of each concentration were used and fitted with GraphPad Prism9 dose-response-inhibition (concentration is log) curve fitting with weighting method (weighted by 1/Y^2) to calculate the IC50 values. A similar procedure was used for determining the IC50 of 3F4AP.

[1] = biological target: T1, Shaker voltage-gated potassium channel (Drosophila melanogaster, UniProt P08510); assay: cut-open voltage clamp electrophysiology of K+ currents in Xenopus laevis oocytes expressing Shaker; assay type: cell-based, D. melanogaster
Protocol: Blocking potency of 5Me3F4AP was evaluated on the voltage-gated Shaker (homologous to mammalian Kv1.2) ion channel expressed in Xenopus laevis oocytes, as previously described. Briefly, each oocyte expressing the Shaker channel was voltage-clamped in a cut-open voltage clamp (COVC) station in order to elicit K^+ currents in response to the voltage stimulus protocol, which entailed steps of 50 ms from − 100 to 60 mV in increments of 10 mV. For COVC measurements, the external recording solution was composed (in mM) of 12 KOH, 2 Ca(OH)2, 105 NMDG-MES (N-methyl-D-glucamine)-methylsufonate, 20 HEPES (4-(2-hydroxyethyl)-1-piperazineethanesulfonic acid). The internal recording solution was composed of 120 KOH, 2 EGTA (ethylene glycol-bis(β-aminoethyl ether)-N,N,N,N-tetraacetic acid), and 20 HEPES. […] Each pH solution was adjusted with MES (2-(N-morpholino)ethanesulfonic acid). For measurements at pH = 9.1, HEPES was substituted by CHES (2-(cyclohexylamino)-ethanesulfonic acid). Each oocyte expressing the Shaker ion channel was voltage-clamped to record K^+ currents, first in the absence of 5Me3F4AP, and subsequently with the addition of 5Me3F4AP, from 0.0001 to 10 mM. Relative current (Irel) was quantified as the […] of the indicated concentration of 5Me3F4AP. Finally, K^+ currents were amplified with the oocyte clamp amplifier CA-1A (Dagan Corporation, Minneapolis, MN, USA) and digitized with the USB-1604-HS-2AO Multifunction Card (Measurement Computing, Norton, MA, USA). All systems were controlled with the GpatchMC64 program (department of anesthesiology, UCLA, Los Angeles, CA, USA) via a PC. Electrophysiology recordings were sampled at 100 kHz and filtered at 10 kHz.
Data analysis was performed as previously described. Briefly, the half-maximal inhibitory concentration of 5Me3F4AP (IC50) was determined by fitting the Irel curve to the Hill equation at each value of V and pH.
Mean values of data ± standard deviation (s.d.) are given or plotted and the number of experiments is denoted by n. Upper and lower limits of the 95% of confidence interval (CI95) are denoted as 10^logIC50+s.d and 10^logIC50-s.d , respectively.

[2] = pKa determination by titration with HCl (Gran plot); assay type: physicochemical; details: n = 4
Protocol: The pKa was determined using titration according to our previously described protocol. A 1 mg/mL solution of 5Me3F4AP was prepared, of which 5 ml was titrated with 0.01 M HCl solution beyond the equivalence point. After each incremental addition of titrant, the sample was stirred and the pH reading was taken with a pH meter. The Gran plot of the titration was analyzed to obtain the pKa (see the plot in Supporting Information, Fig. S3). […] The titration was repeated four times each for each compound.

[3] = biological target: T1, Shaker voltage-gated potassium channel; details: cited from earlier work; for IC50: pH 7.4, Hermann equation, reported previously ref 35, read-out: IC50 (at V=0) ± s.d.; for δ ± s.d. (electric fraction): pH 7.4, reported previously ref 35
[4] = parallel artificial membrane permeability assay-blood-brain barrier (BBB) kit; assay type: in vitro ADME; details: PAMPA-BBB; for Papp at 18 h, 500 µM: PBS pH 7.2, 18 h, n = 3, read-out: permeability to an artificial brain membrane (Pe)
Protocol: The permeability rates of 5Me3F4AP and derivatives were determined using parallel artificial membrane permeability assay-blood–brain barrier (BBB) kit (BioAssay systems, Hayward, USA) following the manufacturer’s protocol. Initially, solutions of each test compound were prepared in DMSO at a concentration of 10 mM. These stock solutions along with the stock solutions of control compounds (high control: promazine hydrochloride, low control: diclofenac) were then diluted with PBS (pH = 7.2) to obtain the donor solutions with a final concentration of 500 μM. At the same time, 200 μM of equilibrium standards for each compound and a DMSO blank control solution were prepared.
In the experimental setup, 300 μL of PBS was added to the desired well of the acceptor plate, and 5 μL of BBB lipid solution in dodecane was added to membranes of the donor plate. Next, 200 μL of the donor solutions of each test compound and each permeability control were added to the duplicate wells of the donor plate. The donor plate was carefully placed on the acceptor plate and incubator for 18 h at room temperature. After incubation, UV absorption measurements were conducted using 100 μL of the resulting solutions from the acceptor plate and the equilibrium standards. UV absorption of the controls was measured by running a UV scan in the range of 200–500 nm. UV absorption of 5Me3F4AP and derivatives was measured using HPLC equipped with a UV detector and C18 column.

[5] = cited from earlier work
[6] = octanol-water partition coefficient (logD) at pH 7.4; assay type: physicochemical
Protocol: The octanol–water partition coefficient (logD) at pH 7.4 was determined according to our previous reported protocol. Briefly, PBS (900 μL), 1-octanol (900 μL), and a 10 mg/ mL aqueous solution of each compound (2 μL) were added to a 2 mL HPLC vial. The compounds were partitioned between the layers via vortexing and centrifuged at 1000 g for 1 min to allow for phase separation. A 10 μL portion was taken from each layer (autoinjector was set up to draw volume at two different heights) and analyzed by HPLC. The relative concentration in each phase was determined by integrating the area under each peak and comparing the ratio of the areas from the octanol and aqueous layers. A calibration curve was performed to ensure that the concentrations detected were within the linear range of the detector (see Figs. S1 and S2 in Supporting Information). This procedure was repeated four times for each compound.

[7] = cited from earlier work; remark: listed apart in the source
[8] = design: method as in PMID 33090071; details: monkeys, 2 h post injection ref 26; cited from earlier work
[9] = cited from earlier work; remark: listed apart in the source
[10] = design: method as in PMID 38690718; details: 35 min post-injection, cited from earlier work
[11] = final concentration 25 µM, 60 min kinetic measurement
[12] = compound solution titrated with 0.01 M HCl

T1 sequence (P08510 whole entry): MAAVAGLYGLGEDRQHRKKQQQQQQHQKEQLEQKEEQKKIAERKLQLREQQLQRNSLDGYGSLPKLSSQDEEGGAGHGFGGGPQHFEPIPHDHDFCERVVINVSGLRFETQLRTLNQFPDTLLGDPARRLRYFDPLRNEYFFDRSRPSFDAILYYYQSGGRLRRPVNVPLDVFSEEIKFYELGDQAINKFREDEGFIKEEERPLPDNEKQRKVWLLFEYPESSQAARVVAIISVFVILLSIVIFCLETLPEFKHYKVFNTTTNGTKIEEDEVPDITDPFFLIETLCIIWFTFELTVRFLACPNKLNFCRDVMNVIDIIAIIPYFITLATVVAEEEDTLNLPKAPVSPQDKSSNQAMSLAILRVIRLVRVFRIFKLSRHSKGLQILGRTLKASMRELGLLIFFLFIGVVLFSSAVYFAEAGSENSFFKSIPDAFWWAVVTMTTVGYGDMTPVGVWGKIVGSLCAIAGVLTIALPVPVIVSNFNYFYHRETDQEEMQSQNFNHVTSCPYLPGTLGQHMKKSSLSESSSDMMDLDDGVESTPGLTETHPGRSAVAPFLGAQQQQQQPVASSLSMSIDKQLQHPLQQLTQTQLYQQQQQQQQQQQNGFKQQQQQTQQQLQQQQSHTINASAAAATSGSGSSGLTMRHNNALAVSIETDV
Sequence of CYP2E1 (P05181 whole entry): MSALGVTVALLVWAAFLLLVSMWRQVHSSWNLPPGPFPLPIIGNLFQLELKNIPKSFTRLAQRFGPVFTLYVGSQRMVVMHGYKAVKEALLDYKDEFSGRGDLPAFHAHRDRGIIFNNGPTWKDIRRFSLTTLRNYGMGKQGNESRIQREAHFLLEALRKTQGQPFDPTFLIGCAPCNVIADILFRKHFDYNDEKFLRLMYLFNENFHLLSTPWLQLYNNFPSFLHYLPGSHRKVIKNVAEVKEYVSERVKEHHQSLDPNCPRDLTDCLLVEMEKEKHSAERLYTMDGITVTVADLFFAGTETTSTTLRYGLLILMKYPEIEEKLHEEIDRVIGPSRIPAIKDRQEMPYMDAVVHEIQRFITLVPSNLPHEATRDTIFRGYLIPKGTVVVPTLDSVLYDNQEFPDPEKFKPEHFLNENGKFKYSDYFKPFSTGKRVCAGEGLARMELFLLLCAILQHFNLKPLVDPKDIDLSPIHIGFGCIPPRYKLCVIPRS

SMILES | change of IC50 when pH was increased to 9.1 [1] | δ ± s.d. (electric fraction) [1] | IC50 ([1]; IC50 (at V=0) ± s.d.) | δ ± s.d. (electric fraction) ([1]; pH 9.1) | pKa [2] | IC50 [3] | δ ± s.d. (electric fraction) [3] | Papp at 18 h, 500 µM [4] | reduction in fluorogenic emission / reaction rate vs. blank (CYP2E1; [11]) | pKa [2, 12] | other results
N[C@@H]1C[C@H]1c1ccccc1 (racemic) [tranylcypromine] |  |  |  |  |  |  |  |  |  |  | reduction in fluorogenic emission / reaction rate vs. blank (CYP2E1): most pronounced reduction in fluorogenic emission
Nc1ccncc1F [3F4AP, 3-fluoro-4-aminopyridine] | increased around three-fold | 0.41 ± 0.03 | 159 µM and 65 µM | 0.52 ± 0.02 | 7.37 ± 0.07 | 122 ± 4 µM | 0.46 ± 0.10 | 3.11 ± 0.29 ×10⁻⁶ cm/s | substantial decrease in rate |  | IC50 (CYP2E1; human, IC50 for CYP2E1 inhibition, reads at 60 min, three replicates): 15.4 ± 5.1 µM
Cc1cnccc1N [3Me4AP, 3-methyl-4AP] | three-fold | 0.28 ± 0.10 | 44 µM and 10 µM | 0.47 ± 0.03 |  | 21 ± 1 µM | 0.43 ± 0.10 |  |  | > 9 | 
Nc1ccncc1 [4AP, 4-aminopyridine] |  | 0.41 ± 0.06 |  | 0.41 ± 0.05 |  |  | 0.41 ± 0.08 |  | minor reduction in fluorogenic emission | > 9 | pKa ([2]; solution of the compound titrated with 0.01 M HCl): 9.19; parent fraction in plasma ([5]; 24 h post oral administration ref 42): ~ 70%
Cc1cncc(F)c1N [5Me3F4AP, 3-fluoro-5-methylpyridin-4-amine] |  |  |  | 0.40 ± 0.04 | 7.46 ± 0.01 |  |  | 8.81 ± 1.83 ×10⁻⁶ cm/s | reaction rate between 4AP and 3F4AP |  | block of Shaker K+ currents ([1]; 1 mM, pH 6.4, 7.4 and 9.1): efficiently blocks the channels; Hill parameter h ([1]; Hill fit at 40 mV, all experimental conditions): ≈ 1; change of IC50 when pH was increased to 9.1 ([1]; IC50 at 40 mV, Hill equation): increased around three-fold; δ ± s.d. (electric fraction) ([1]; pH 6.4): 0.39 ± 0.04; IC50 ([1]; pH 6.4, Hermann equation, read-out: IC50 (at V=0) ± s.d.): 118 ± 17 µM; δ ± s.d. (electric fraction) ([1]; pH 7.4): 0.40 ± 0.02; IC50 ([1]; pH 7.4, Hermann equation, read-out: IC50 (at V=0) ± s.d.): 161 ± 25 µM; blocking potency compared with related compounds ([1]; pH 7.4, IC50 at 40 mV): very similar to that of 4AP and 3F4AP; IC50 ([1]; pH 9.1, Hermann equation, read-out: IC50 (at V=0) ± s.d.): 373 ± 84 µM; δ value (electric fraction) ([1]; pH not specified): ~0.4; logD ([6]; 1-octanol/PBS, pH 7.4, pH 7.4, n = 4): 0.664 ± 0.005; logD (octanol/water partition coefficient) ([6]; pH 7.4, n = 4): 0.66; permeation rate relative to 3F4AP [4]: approximately three times faster than 3F4AP; IC50 at 60 min (CYP2E1; human, recombinant CYP2E1 BACULOSOMES (Vivid CYP2E1 screening kit), IC50 for CYP2E1 inhibition, reads at 60 min, three replicates): 36.2 ± 2.5 µM; CYP2E1-mediated oxidation rate relative to 3F4AP (CYP2E1; kinetic measurement): about two times slower than 3F4AP
Nc1ccncc1[18F] [[^18F]3F4AP, [^18F]3-fluoro-4-aminopyridine] |  |  |  |  |  |  |  |  |  |  | logD [7]: 0.41; plasma parent fraction (PPF) remaining ([5]; humans, 30 min post injection ref 27): < 50%; plasma parent fraction (PPF) [8]: > 90%; pKa [9]: 7.65; plasma parent fraction (PPF) ([10]; anesthetized mice (isoflurane), n = 10 ref 29): 74.8 ± 1.6; plasma parent fraction (PPF) ([10]; awake mice, n = 11 ref 29): 17.7 ± 1.7
